Experimental data from patent US12138246B2, “Treatments with nirogacestat” (SpringWorks Therapeutics, Inc., priority 2022, dated 2024).
Counter-ions that a name gives are not always drawn.

Assays:
[1] = test system: progressing desmoid tumors/aggressive fibromatosis (DT/AF); type: in vivo
From the text: A Phase 3, double-blind, placebo-controlled study is being conducted to determine the efficacy and safety of nirogacestat dihydrobromide in participants with progressing desmoid tumors. A Phase 1 solid tumor study provided preliminary efficacy (Messersmith, W., et al., “A Phase I, dose-finding study in patients with advanced solid malignancies of the oral γ-secretase inhibitor PF-03084014,” Clin. Cancer Res., 21:60-7 (2015)), including long-term durable responses and safety of nirogacestat in desmoid participants (Villalobos, V. M., et al., “Long-Term Follow-Up of Desmoid Fibromatosis Treated with PF-03084014, an Oral Gamma Secretase Inhibitor, Ann. Surg. Oncol., 25:768-75 (2018)). These encouraging results lead to a Phase 2 study in participants with progressing desmoid tumors (Kummar, S., et al., “Clinical Activity of the γ-Secretase Inhibitor PF-03084014 in Adults with Desmoid Tumors (Aggressive Fibromatosis), J. Clin. Oncol., 35:1561-69 (2017)). […] Importantly, participants in the responder group had failed previous systemic therapies (imatinib or sorafenib) indicating a need for alterative therapeutic options for this patient population.
Overall Design: The Phase 3 study will be a multi-center, randomized, double-blind, placebo-controlled, event-driven to compare the efficacy, safety, and tolerability of nirogacestat and placebo in adult participants with progressing DT/AF. This study will consist of 2 phases, a double-blind and an optional open-label extension (OLE) phase.
Following disease progression (confirmed by central review using RECIST v1.1), or completion of the double-blind phase (once the required number of events have been observed and the primary PFS analysis has been completed), participants' treatment assignment will be unblinded, and if eligible, participants will have the option to enroll in the optional OLE phase.
• 1. Participant has DT/AF that has progressed by ≥20% as measured by RECIST v1.1 within the 12-month period prior to first dose of study treatment. • 2. Participant has: • a. Newly diagnosed, measurable progressing DT/AF that is not amenable to surgical resection or radiation therapy; • OR • b. Recurrent, progressing DT/AF following CR to initial therapy; • OR • c. Preexisting DT/AF and has previously received therapy and the residual tumor has progressed. • 3. Participant agrees to provide archival or new tumor tissue for confirmation of disease. • 4. If participant was previously treated with an investigational therapy for treatment of DT/AF, participant must have completed prior therapy at least 28 days prior to signing informed consent. All toxicities from prior therapy must resolve to ≤Grade 1 or baseline. • 5. Participants who are receiving nonsteroidal anti-inflammatory drugs (NSAIDs) as treatment for conditions other than DT/AF must be receiving them prior to the observed progression (inclusion criteria 1) for: • a. Chronic scheduled daily use (defined as stable for 28 days prior to signing informed consent); or • b. Occasional use (defined as ≤3 days per week) for the treatment of pain or as an anti-inflammatory in licensed conditions such as headache, arthritis, etc. • c. Participant has an Eastern Cooperative Oncology Group (ECOG) performance status ≤2 at screening. • 6. Participant has adequate organ and bone marrow function as defined by the following Screening laboratory values: • a. Absolute neutrophil count ≥1500/μL; • b. Platelets ≥100×10^3/μL; • c. Hemoglobin ≥9 g/dL; • d. Total bilirubin ≤1.5× upper limit of normal (ULN) (isolated bilirubin >1.5×ULN is acceptable if bilirubin is fractionated and direct bilirubin <35%); • e. Aspartate aminotransferase (AST) (serum glutamic oxaloacetic transaminase)/alanine aminotransferase (ALT) (serum glutamic pyruvate transaminase)≤2×ULN; and • f. […] Participant can swallow tablets and has no gastrointestinal conditions affecting absorption. […]

[2] = test system: progressing desmoid tumors; details: Phase 2, participants with progressing desmoid tumors; cited from earlier work
[3] = Pharmacokinetic parameters for single oral doses; type: in vivo, human
[4] = intent-to-treat population, n = 70
[5] = Min, COHORT 1: 150 mg (3 × 50 mg), Period 1

For CCC[C@H](N[C@H]1CCc2cc(F)cc(F)c2C1)C(=O)Nc1cn(C(C)(C)CNCC(C)(C)C)cn1 (single isomer, unassigned) [nirogacestat], the “most frequent adverse reactions requiring a dose reduction or interruption” value ([1]; in vivo) was “diarrhea, rash maculo-papular, hypophosphatemia, stomatitis, folliculitis, and fatigue”, the “Best overall response, n (%): Complete response” value [1, 4] was 5 (7) n (%) and the “Best overall response, n (%): Not evaluable” value [1, 4] was 4 (6) n (%). The “Best overall response, n (%): Partial response” value [1, 4] was 24 (34) n (%), the “Best overall response, n (%): Progressive disease” value [1, 4] was 1 (1) n (%) and the “Best overall response, n (%): Stable disease” value [1, 4] was 35 (50) n (%). The “Disease control rate, n (%)” value [1, 4] was 64 (91) n (%), the “Time to response, months, median (range)” value [1, 4] was 5.6 (2.6, 19.4) months and the “progression-free survival (PFS), hazard ratio (HR)” value ([1]; nirogacestat over placebo, 150 mg twice daily, p<0.001) was 0.29. The “progression while on therapy” value [2] was “no participants progressing while on therapy”.
CCC[C@H](N[C@H]1CCc2cc(F)cc(F)c2C1)C(=O)Nc1cn(C(C)(C)CNCC(C)(C)C)cn1 [nirogacestat dihydrobromide] gave a CL/F ([3]; Max, COHORT 1: 150 mg (1 × 150 mg), Period 2) of 82.0 L/h, a Half-life ([3]; Max, COHORT 1: 150 mg (3 × 50 mg), Period 1) of 32.0 h and a CL/F ([3]; Max, COHORT 3: 50 mg, Period 1) of 660 L/h. For the same compound, the CL/F ([3]; Median, COHORT 1: 150 mg (3 × 50 mg), Period 1) was 57.0 L/h, the AUCinf [3, 5] was 2160 ng·h/mL and the AUClast [3, 5] was 2080 ng·h/mL.
